Laboratory results reported in patent US11045435B2, “Methods for treating ocular diseases” (NATUREWISE BIOTECH & MEDICALS CORPORATION, priority 2016, dated 2021).

Columns and labels:
[1] = system: ARPE-19 cells; experiment: Hypoxia-induced injury in ARPE-19 cells (MTT); type: cell-based, human; settings: 72 h
Experimental: (§1) MTT assay was used to measure the viability of ARPE-19 cells and HUVECs. 2×10^5 ARPE-19 cells or 5×10^4 HUVECs were seeded in 96-well plates ([…]) and allowed to grow overnight. Negative control was prepared by adding 100 μl medium without cells. The cells were then treated with fresh medium with COMPOUND I (0.03, 0.1, 0.3, 1, 3 and 10 μg/ml) and/or oxidants (NaIO3, H2O2, t-BHP and NaN3) for 12, 24, or 72 hours (200 μl/well). The vehicle control group was treated with vehicle. 20 μl MTT (5 mg/ml) was added to wells, and incubated for another 4 h. After incubation, the medium was discarded and 100 μl DMSO was added to solubilize formazan produced from MTT by the viable cells. Absorbance was measured at 570 nm using a microplate reader (Bio-Rad Laboratories, Inc., CA). Cells viability was calculated according to the following formula: Viability of cells (%)=(absorbance in tested sample−absorbance in negative control)/(absorbance in vehicle control−absorbance in negative control)×100%.
(§2) Cells were allowed to attach overnight, and then exposed to COMPOUND I or vehicle under hypoxic condition for 72 h. Hypoxic conditions (1% O2, 5% CO2 and 94% N2) were maintained by using a temperature and humidity controlled environmental C-chamber by O2 and CO2 controllers (Proox Model 110 and Pro CO2 model 120, Biospherix Ltd., Redfield, N.Y., USA) with N2 and CO2 gas sources.

[2] = system: VEGF; experiment: VEGF levels in retina, Western Blot, streptozotocin-induced diabetic retinopathy; type: in vivo, Sprague-Dawley female rats
[3] = system: ARPE-19 cells; experiment: t-BHP-induced injury in ARPE-19 cells (MTT); type: cell-based, human; settings: 0.03 μg/ml to 10 µg/ml, 12 h
Experimental: as §1

[4] = system: GFAP mRNA; experiment: Gene expression of GFAP in retina, quantitative real-time PCR, streptozotocin-induced diabetic retinopathy; type: in vivo, Sprague-Dawley female rats
Experimental: After a 16-hour fasting, Sprague-Dawley female rats weighing 200-220 g received a single 60 mg/kg intraperitoneal injection of Streptozotocin (STZ; Sigma-Aldrich, St. Louis, Md.) in 10 mM sodium citrate buffer (pH 4.5; Sigma-Aldrich, St. Louis, Md.). Control rats were fasted and received the buffer solution alone. Rats with blood glucose levels higher than 375 mg/dL 7 days after receiving STZ were considered to be diabetic. Diabetic rats were treated with 1% COMPOUND I, 0.5% COMPOUND I or vehicle eye drops 3 time a day for 6 weeks.
After rat were sacrificed as described previously, the eyes were enucleated and bisected, and the retinas were peeled from the eyecups and immediately homogenized in RNA isolation agent (RNeasy®Plus Mini Kit, Qiagen, Valencia, Calif.). The first-strand cDNA was prepared from the mRNA by using the commercial kit in accordance with the manufacturer's protocol (High-capacity reverse transcription kits, AB life technologies, Austin, Tex.). Real-time PCR was performed in 96-well plates using standard protocols with a fluorescent detection dye (SYBRR Green PCR Master Mix, AB life technologies, Austin, Tex.) in a real-time detection system (iCycler. Bio-Rad). All PCR reactions were a final volume of 20 μl comprised of fluorescent dye/PCR mix, final concentration 0.2 μM forward and reverse primers, and 1 ng of cDNA. The PCR cycle parameters were as follows: polymerase activation for 15 minutes at 90° C., 40 cycles of 95° C. for 15 seconds, 60° C. for 30 seconds and 72° C. for 1 minute. The quantity of mRNA was calculated by normalizing the CT of the β-actin housekeeping gene in the same sample, according to the following formula: The average β-actin CT (each multiplex PCR was performed in triplicate) was subtracted from the average target gene CT; the results represented the ΔCT. This ΔCT is specific and can be compared with the ΔCT of a calibration sample. The subtraction of control ΔCT from the ΔCT of the target gene is referred ΔΔCT. The relative quantification of expression of a target gene (in comparison with control) was determined by using 2^−ΔΔCT.

[5] = system: ARPE-19 cells; experiment: NaN3-induced injury in ARPE-19 cells (MTT); type: cell-based, human; settings: 72 h
Experimental: as §1

[6] = system: HUVECs; experiment: H2O2-induced injury in HUVECs (MTT); type: cell-based, human; settings: 10 μg/ml, 24 h
Experimental: as §1

[7] = system: ARPE-19 cells; experiment: MTT viability / proliferation of ARPE-19 cells; type: cell-based, human; settings: 72 h
Experimental: ARPE-19 cells were grown in DMEM/F12 medium supplemented with 10% FBS, 100 units/ml penicillin G, and 100 μg/ml streptomycin sulfate. HUVECs were grown in vascular cell basal medium supplemented with endothelial cell growth kit. Cells were incubated in a humidified incubator at 37° C. under 5% CO2 and 95% air.
as §1

[8] = system: ARPE-19 cells; experiment: NaIO3-induced injury in ARPE-19 cells (MTT); type: cell-based, human; settings: 10 μg/ml; 72 h
Experimental: as §1

[9] = Hypoxia-induced injury in HUVECs (MTT); type: cell-based; settings: human, 1% O2, read-out: decrease of viability in hypoxic condition
Experimental: as §1, §2

[10] = system: HUVECs; experiment: NaN3-induced injury in HUVECs (MTT); type: cell-based, human; settings: 72 h
Experimental: as §1

[11] = system: HUVECs; experiment: t-BHP-induced injury in HUVECs (MTT); type: cell-based, human; settings: 12 h; for reversal of t-BHP-induced injury: 200 I-M t-BHP; for enhancement of t-BHP-induced injury: 10 μg/ml
Experimental: as §1

[12] = system: HUVECs; experiment: NaIO3-induced injury in HUVECs (MTT); type: cell-based, human; settings: 72 h
Experimental: as §1

Compound: COc1ccc(COc2c(/C=C/C(=O)NO)ccc(OC)c2CC=C(C)C)cc1 [COMPOUND I]
- effect on cells in hypoxic condition ([1]; 0.03 μg/ml to 10 μg/ml except 3 μg/ml): had no effect
- increase of viability in hypoxic condition ([1]; 3 μg/ml, 1% O2): 22%
- VEGF level in diabetic eyes, in words ([2]; 0.5% and 1%): markedly suppressed
- VEGF level (Western Blot), DR animals as 100% ([2]; 0.5% eye drops tid 6 weeks): 77%
- VEGF level (Western Blot), DR rats as 100% ([2]; 1.0% eye drops tid 6 weeks): 50%
- effect on 200 μM t-BHP-induced injury [3]: reversed
- GFAP gene expression vs diabetic control group, in words ([4]; 0.5% and 1%): significantly down-regulated
- mRNA expression of GFAP, DR animals as 100% ([4]; 0.5% eye drops tid 6 weeks): 60%
- mRNA expression of GFAP, DR animals as 100% ([4]; 1% eye drops tid 6 weeks): 51%
- effect on NaN3-induced injury [5]: significantly reversed
- enhancement of H2O2-induced injury ([6]; 200 μM H2O2): 41%
- enhancement of H2O2-induced injury ([6]; 400 μM H2O2): 10%
- effect on cell growth ([7]; 0.03 μg/ml to 1 μg/ml): did not affect cell growth
- inhibition at 10 µg/mL ([7]; Homo sapiens, ARPE-19, 10 μg/ml): 36%
- effect on viability in NaIO3-induced injury [8]: significantly enhanced the viability
- cytotoxicity at 72 h, 10 μg/ml [9]: 98%
- enhancement of NaN3-induced injury ([10]; 10 µg/ml, 3 mM NaN3): 72%
- effect on NaN3-induced injury ([10]; From 0.03 μg/ml): didn't affect
- enhancement of NaN3-induced injury ([10]; […], 0.3 mM NaN3): 65%
- enhancement of NaN3-induced injury ([10]; […], 1 mM NaN3): 52%
- reversal of t-BHP-induced injury ([11]; 1 μg/ml): 26%
- reversal of t-BHP-induced injury ([11]; 3 μg/ml): 28%
- enhancement of t-BHP-induced injury ([11]; 50 μM t-BHP): 40%
- enhancement of t-BHP-induced injury ([11]; 100 μM t-BHP): 20%
- enhancement of t-BHP-induced injury ([11]; 200 μM t-BHP): 51%
- effect on 300 μg/ml NaIO3-induced injury ([12]; 0.03 μg/ml to 1 μg/ml, 300 μg/ml NaIO3): reversed
- effect on viability in NaIO3-induced injury ([12]; 10 μg/ml): significantly enhanced the viability
